Reference: patent US20100016307A1, “NOVEL COMPOUNDS” (priority 2006, published 2010)

Experiments:
[1] = molecular target: T1, c-Met/cFms chimeric receptor in c-Met/cFms/NIH3T3 cells (Homo sapiens, UniProt P08581); experiment: Cell-based assay for c-Met autophosphorylation (ELISA); settings: compounds 1 h at 37° C., M-CSF (600 ng/ml) stimulation 10 min
T1 construct: The transmembrane/cytoplasmic domain fragment of c-Met (nucleotides 933 to 1390); expressed in transfected cells; the other entry of the earlier key: CSF1R (P07333, Macrophage colony-stimulating factor 1 receptor)
Source text: To generate a chimeric cDNA clone of c-Met with cFms, the extracellular domain of colony stimulating factor 1 receptor (CSF1R encoded by cFms gene) was fused with the transmembrane and cytoplasmic domain of c-Met. Reverse-transcribed RNA from human placenta was used as template to clone c-Met. The transmembrane/cytoplasmic domain fragment of c-Met (nucleotides 933 to 1390) containing a NotI site at both 5′- and 3′-end was generated by polymerase chain reaction (PCR) using following two oligonucleotides;
The resulting c-Met cDNA was cloned into pCR2.1-TOPO vector (c-Met/pCR2.1-TOPO). The extracellular domain fragment of cFms (nucleotides 1 to 512) containing BamHI site at 5′-end and NotI site at 3′-end was generated from human placenta cDNA by PCR using two oligonucleotides;
The resulting cFms cDNA was cloned into pcDNA3.1 vector (Invitrogen) using the BamHI and NotI sites (cFms/pcDNA3.1). To generate complete chimeric construct, the c-Met fragment (transmembrane and cytoplasmic domain) was digested with NotI sites (in c-Met/pCR2.1-TOPO vector) and then subcloned into cFms/pcDNA3.1 vector by NotI site (c-Met/cFms/pcDNA3.1).
NIH3T3 cells were grown in DMEM supplemented with 10% fetal bovine serum. NIH3T3 cells were transfected with c-Met/cFms/pcDNA3.1 vector alone using the calcium phosphate method according to the manufacturer's instructions. Three days after transfection, cells were selected with G418 (0.4 mgml^−1) for 14 days and the expression of c-Met chimeric receptor in the G418-resistant colonies of NIH3T3 (c-Met/cFms/NIH3T3) cells was analyzed by immunoblot. Autophosphorylation of c-Met induced by the stimulation with M-SCF, the ligand for CSF1R, was analyzed by immunoprecipitation and immunoblot, and prominent stable transfectant was selected for c-Met autophosphorylation assay. […]
c-Met/cFms/NIH3T3 cells were plated at 1×10^5 cells/well in collagen-coated 96-well microtitre plates and grown 24 h under standard culture conditions, followed by serum starvation for 1 h. The cells were incubated with compounds for 1 h at 37° C. and followed by M-CSF (600 ngml^−1) stimulation for 10 min at 37° C. The media was removed and the cells were lysed with 120 ul/well of lysis buffer (20 mM Tris-HCl pH8.0, 137 mM NaCl, 2 mM EDTA, 10% glycerol, 1% Triton X-100, 1 mM Na3VO4 and Protease Inhibitor Cocktail (Complete mini EDTA-free, Roche)). Then 100 ul/well of lysate was transferred to the antibody-coated (50 ng/well goat anti-cFms antibody in PBS) ELISA plate and incubated overnight at 4° C. Plates were washed five times with PBST (PBS containing 0.05% Tween-20). Primary antibody (biotin-conjugated anti-phosphotyrosine monoclonal antibody, PIERCE) was diluted 1:10,000 in PBST containing 1% BSA, added (100 ul/well) and incubated for 2 h at room temperature. After washing the plates five times with washing buffer, 100 ul/well of HRP-conjugated streptavidin (PIERCE) in PBST containing 1% BSA was added and incubated for 30 min at room temperature. After washing five times with PBST, 100 ul/well of SuperSignal ELISA Femto Substrate (PIERCE) was added and incubated for almost 1 min at room temperature. Chemiluminescence was measured using Wallac 1420 multilabel counter.
The IC50 was determined by using XLfit software (IDBS) with four-parameters, sigmoidal dose-response equation.

[2] = molecular target: T2, human Met Kinase (His6-GST fusion, aa 956-1390) (Homo sapiens, UniProt P08581); experiment: In vitro screen: kinase assay of purified Met kinase; type: biochemical; settings: purified Met 1 nM, 10 μM ATP, 1 μM peptide substrate, 1 hour at room temperature; read-out: pIC50 values at the c-Met receptor (in vitro screen results) (converted)
T2 construct: His6 (N); GST (Glutathione-S-Transferase) (N); made in house; host or cells: baculovirus expression system in Sf9 cells
Description: The peptide substrate, Biotin-aminohexyl-EEEEYFELVAKKKK-amide was purchased from SynPep Solid sample is dissolved at approximately 2.5 mM in water (concentration determined by amino acid analysis) and aliquots stored at −20° C.
Met Kinase: A fusion protein consisting of His6-tagged Glutathione-S-Transferase (GST) and amino acid residues 956-1390 of human Met Kinase (aa 956-1390 of Entrez Protein Accession # EAL24359.1 (met proto-oncogene (hepatocyte growth factor receptor) [Homo sapiens])) from “www.ncbi.nlm.nih.gov/entrez/”) is purified from baculovirus expression system in Sf9 cells using Ni chelate column, GSH column, followed by size exclusion chromatography. Purity greater than 90%, estimated by SDS-PAGE, is achieved. Samples in 25 mM HEPES pH 7.5, 100 mM NaCl, 0.1 mM EDTA are stored at −80° C. until use.
Assays are performed in 96 well (Costar, Catalog No. 3789) or 384 well plates (Costar, Catalog No. 3705). Assay conditions for the peptide phosphorylation reaction (in 10, 20, 25, or 40 μl volume) mix are 100 mM Hepes buffer, pH 7.4; 0.1 mgml^−1 BSA; 5 mM MgCl2; 1 mM DTT; 10 μM ATP; purified Met (1 nM final); and 1 μM peptide substrate. Compounds, titrated in DMSO, are evaluated at concentrations ranging from 50 μM to 0.2 nM. […] Reactions are incubated for 1 hour at room temperature and are stopped by addition of detection reagents containing, at final detection volume, 12.5 mM EDTA; 100 mM Hepes; 0.1 mg/ml BSA; 8 nM Streptavidin APC (Perkin Elmer catalog #CR130-150); 1 nM Europium-labelled anti-phosphotyrosine antibody (Perkin Elmer catalog #AD0067). Under the assay conditions defined above, the Km (apparent) for ATP is determined to be 40 μM.
The data for compound dose responses were plotted as % Inhibition, calculated with the data reduction formula 100*(1−[(U1−C2)/(C1−C2)]), versus concentration of compound, where U is the unknown value, C1 is the average control value obtained for DMSO, and C2 is the average control value obtained for 0.05M EDTA. Data were fitted to the curve described by: y=((Vmax*x)/(K+x)) where Vmax is the upper asymptote and K is the IC50. The results for each compound were recorded as pIC50 calculated as follows: pIC50=−Log 10(K).

T2 sequence (P08581 956-1390): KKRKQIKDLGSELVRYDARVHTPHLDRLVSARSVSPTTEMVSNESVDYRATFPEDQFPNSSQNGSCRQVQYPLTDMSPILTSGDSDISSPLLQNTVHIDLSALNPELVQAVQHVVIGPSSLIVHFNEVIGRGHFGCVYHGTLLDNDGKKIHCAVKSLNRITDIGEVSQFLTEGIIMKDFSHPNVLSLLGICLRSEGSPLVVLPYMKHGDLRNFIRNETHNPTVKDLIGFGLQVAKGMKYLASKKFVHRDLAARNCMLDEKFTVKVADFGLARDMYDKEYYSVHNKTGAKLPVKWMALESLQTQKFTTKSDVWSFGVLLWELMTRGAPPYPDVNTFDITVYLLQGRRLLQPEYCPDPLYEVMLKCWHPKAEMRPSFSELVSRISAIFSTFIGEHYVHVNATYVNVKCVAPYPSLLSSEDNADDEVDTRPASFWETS
T1 sequence (P08581 with tags, fused parts or gaps): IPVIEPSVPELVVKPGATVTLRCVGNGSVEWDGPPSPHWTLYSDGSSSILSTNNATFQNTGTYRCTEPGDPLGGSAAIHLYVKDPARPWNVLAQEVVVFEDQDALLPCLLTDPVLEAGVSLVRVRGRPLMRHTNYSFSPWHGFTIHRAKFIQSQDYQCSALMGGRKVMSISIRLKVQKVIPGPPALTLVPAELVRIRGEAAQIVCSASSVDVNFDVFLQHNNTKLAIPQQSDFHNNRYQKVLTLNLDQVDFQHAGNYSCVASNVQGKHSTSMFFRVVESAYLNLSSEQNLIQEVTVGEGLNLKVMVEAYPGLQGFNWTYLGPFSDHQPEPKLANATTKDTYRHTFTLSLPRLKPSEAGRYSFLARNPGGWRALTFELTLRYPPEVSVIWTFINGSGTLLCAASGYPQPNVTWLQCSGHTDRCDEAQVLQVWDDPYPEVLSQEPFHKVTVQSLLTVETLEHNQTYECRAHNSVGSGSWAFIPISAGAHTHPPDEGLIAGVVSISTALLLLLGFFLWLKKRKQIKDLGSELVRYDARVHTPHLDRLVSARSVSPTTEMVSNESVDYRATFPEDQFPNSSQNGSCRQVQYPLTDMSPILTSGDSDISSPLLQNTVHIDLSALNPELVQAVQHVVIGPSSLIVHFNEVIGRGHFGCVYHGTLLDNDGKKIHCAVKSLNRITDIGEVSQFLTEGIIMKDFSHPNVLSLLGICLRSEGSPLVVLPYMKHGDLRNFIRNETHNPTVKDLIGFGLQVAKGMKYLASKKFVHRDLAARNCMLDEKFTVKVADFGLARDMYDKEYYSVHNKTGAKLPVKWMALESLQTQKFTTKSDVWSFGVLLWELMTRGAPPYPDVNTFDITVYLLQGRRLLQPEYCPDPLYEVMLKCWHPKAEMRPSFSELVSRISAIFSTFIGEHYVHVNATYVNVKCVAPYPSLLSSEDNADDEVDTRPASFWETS

Structure (SMILES)	IC50 [1]	IC50 [2]
CN(C)Cc1cccc(NC(=O)c2cc3c(Oc4ccc(NC(=O)C5(C(=O)Nc6ccc(F)cc6)CC5)cc4)ccnc3[nH]2)c1 [Example 14, N^1-[4-({2-[({3-[(Dimethylamino)methyl]phenyl}amino)carbonyl]-1H-pyrrolo[2,3-b]pyridin-4-yl}oxy)phenyl]-N^1-(4-fluorophenyl)-1,1-cyclopropane dicarboxamide]	1 to 3.16 µM	< 0.01 µM
O=C(Nc1ccccc1)C1(C(=O)Nc2ccc(Nc3ccnc4[nH]ccc34)cc2)CC1 [Example 16, N^1-Phenyl-N^1-[4-(1H-pyrrolo[2,3-b]pyridin-4-ylamino)phenyl]-1,1-cyclopropanedicarboxamide]	3.16 to 31.6 µM	0.1 to 1 µM
